The source made the active and inactive calls. The calls are words filed in the database; no cut-off is given here.
Experiments:
PC-12 [1] = experiment: Neuritogenic activity in rat PC12 cells in serum free medium assessed as potentiation of NGF-induced neurite outgrowth at 25 uM after 24 hrs by light microscopy in presence of 20 ng/ml NGF; type: functional
PC-12 [2] = experiment: Neuritogenic activity in rat PC12 cells in serum free medium assessed as neurite outgrowth at 25 uM after 24 hrs by light microscopy; type: functional, cell-based
PC-12 [3] = experiment: Neuritogenic activity in rat PC12 cells in serum free medium assessed as potentiation of NGF-induced neurite outgrowth at 25 uM after 24 hrs by light microscopy in presence of 20 ng/ml NGF relative to NGF; type: functional, cell-based

| SMILES | Activity (PC-12 [1]) | Activity (PC-12 [2]) | Activity (PC-12 [3]) |
| --- | --- | --- | --- |
| C[C@@H](CO)C1=C2[C@H]3C[C@H](O)C(COC(=O)c4ccccc4)=C[C@H](O)[C@]3(C)CC[C@@]2(CO)CC1 | inactive | inactive | – |
| CC(C)C1=C2[C@H]3C[C@@H](OC(=O)c4ccccc4)C(COC(=O)c4ccccc4)=C[C@H](O)[C@]3(C)CC[C@@]2(C(=O)O)CC1 | inactive | inactive | – |
| C[C@@H](CO)C1=C2[C@H]3C[C@H](O)C(COC(=O)c4ccccc4)=C[C@H](O)[C@]3(C)CC[C@@]2(C)CC1 | inactive | inactive | – |
| C[C@H](CO)C1=C2[C@H]3CC=C(C=O)CC(=O)[C@]3(C)CC[C@@]2(C)CC1 [SARCODONIN G] | 24.9% | inactive | Active |
| C[C@H](CO)C1=C2C3=CC=C(C=O)C[C@H](O)[C@]3(C)CC[C@@]2(C)CC1 [SARCODONIN A] | 20% | inactive | Active |
| CC(=O)OC[C@@H](C)C1=C2[C@H]3CC=C(C=O)CC(=O)[C@]3(C)CC[C@@]2(C)CC1 | inactive | inactive | – |
| C[C@@H](CO)C1=C2[C@H]3CC=C(C=O)CC(=O)[C@]3(C)CC[C@@]2(CO)CC1 | inactive | inactive | – |

From ChEMBL document CHEMBL1799959, “Cyathane diterpenes from Chinese mushroom Sarcodon scabrosus and their neurite outgrowth-promoting activity” (2011)
